The text below walks through data of patent publication US8759010B2, “Host cell kinases as targets for antiviral therapies against HCV infection” (INSERM (Institut National de la Sante et de la Recherche …, priority 2008, dated 2014).

One data set relates to HCVpp H77C, genotype 1a. Put plainly: HCVpp entry in hepatoma cells, luciferase reporter (Example 1). Type of data set: cell-based, HCV. As to conditions: Huh7.5.1 cells, 1 μM or 10 μM inhibitor, 1 h prior to 3 h post-infection, FIG. 3.
For a further data set, the system named is HCVcc JFH1. Put plainly: HCVcc infection of Huh7.5.1 cells, luciferase reporter or RT-PCR of HCV RNA (Example 1). Type of data set: cell-based. The following applies: 1 μM or 10 μM inhibitor, dose-dependent, FIG. 3. The method, then:
Bicistronic plasmid pFK-Luc-Jc1 (Koutsoudakis, 2006) encodes a luciferase reporter gene and a chimeric HCV genome designated Jc1 which consists of J6CF and JFH1 segments. In vitro HCV RNA synthesis and RNA transfection were carried out as previously described (Wakita, 2005). Culture supernatants from transfected cells were cleared and concentrated as previously described using an Amicon Ultra 15 (Millipore, USA) and used directly or were stored at 4° C. or −80° C. Viruses were titrered by using the limiting dilution assay on Huh7.5.1 cells with a few minor modifications and TCID50 values were calculated based on a method previously described (Lindenbach, 2005).
All inhibitors used in this study were obtained from LC Laboratories (USA). Before use, they were dissolved in DMSO and diluted in Huh7.5.1 cell culture medium (Zhong, 2005). Following incubation, HCVpp entry and HCVcc infection were assessed by luciferase reporter gene expression or RT-PCR of HCV RNA in cells as previously reported (Pestka, 2007; Zeisel, 2007).
On the technique in general: A reporter such as luciferase makes a cellular process visible.

In data set [1] the test system is subgenomic HCV JFH1 replicon. Put plainly: HCV replication, subgenomic JFH1 replicon, Northern blot. It counts as cell-based. As to conditions: Huh7.5 cells electroporated with subgenomic JFH1 replicon RNA, 24 h incubation, FIG. 9C. From the text: HEK 293T, Huh7 and Huh7.5.1 cells used in the present study have previously been described (Bartosch, 2003; Barth, 2003; Zhong, 2005). Primary human hepatocytes were isolated and cultured as previously described (David, 1998, which is incorporated herein by reference in its entirety). Subgenomic HCV replicon JFH1-SGR used herein has also previously been described (Kato, 2005).
A 9.7 kb fragment derived from plasmid […] (Wakita, 2005) digested with XbaI and EcoRI was labeled with α^32P-CTP using NEBlot kit (NEB, USA). Northern blotting was performed according to standard protocols (F. M. Ausubel et al., “Current Protocols in Molecular Biology”, John Wiley 1 Sons, Inc., 2007).
Electroporation of RNA derived from plasmids pSGR-JFH1 was performed as previously described (Lan, 2008). Four hours after electroporation, cells were incubated with protein kinase inhibitors in cell culture supernatant for 24 hours. Total RNA was isolate and analyzed by Northern blot analysis of HCV RNA as described (Lohmann, 1999).
Background: A replicon is a self-replicating genome or part of one, used to study replication in cells.

The test system of data set [2] is HCVcc Luc-Jc1, genotype 2a/2a. The data set is described as follows: microbe, parasite or virus in culture. It counts as cell-based, HCV. As to conditions: for IC50: Hepatitis C virus, hepatocytes or hepatocyte-derived cell lines, FIG. 9, read-out: IC50, inhibition of HCV entry and infection.
The next data set deals with HCVpp JFH1; genotype 2a. Put plainly: HCVpp entry in primary human hepatocytes. It counts as cell-based, HCV. As to conditions: JFH1-derived HCVpp; inhibitor added 1 h prior to infection; FIG. 9B.
In data set [3] the test system is HCVpp (genotype 1b) bearing envelope glycoproteins from HCV strains VD, VH, VK, VN. The data set is described as follows: Entry of patient-derived HCVpp in primary human hepatocytes. It counts as cell-based. The following applies: 10 μM, 1 h prior to infection, FIG. 10C.
The subject of data set [4] is primary human hepatocytes. Put plainly: MTT cell viability, primary human hepatocytes. It counts as cell-based. As for the experimental part:
Toxicity Assays. […] For siRNA experiments, MTT was added 3 days after transfection with siRNA for 5 hours. The final concentration of MTT was 0.6 mg/mL. […] 2.

For a further data set, the system named is HCVpp. The data set is described as follows: HCVpp entry in primary human hepatocytes (Flavopiridol). As to conditions: HCVpp strain not stated.
The test system of the next data set is Huh7.5 cells. The data set is described as follows: MTT cell viability, Huh7.5 cells. Type of data set: cell-based, human. As to conditions: 10 μM, FIG. 7C. As for the experimental part: (§1) Toxicity Assays. Cytotoxicity effects on cells were assessed in triplicates by analyzing the ability to metabolize 3-(4,5-dimethylthiazol-2-yl)-2,5-diphenyltetrazolium bromide (MTT) (Lan, 2008). For siRNA experiments, MTT was added 3 days after transfection with siRNA for 5 hours. The final concentration of MTT was 0.6 mg/mL. Formazan crystals produced by the cells were solubilized and measured as described (Mosmann, 1983). 2. Identification of Cellular Kinases Involved in HCV Entry Using a Genome-Wide RNAi Kinase HCV Entry Screen

A further data set concerns Huh7.5.1 cells. Put plainly: MTT cell viability, Huh7.5.1 cells. Type of data set: cell-based, human. The following applies: 10 μM, FIG. 7D. The method, then: as §1
Data set [5] deals with HCVpp (genotype 1b) bearing envelope glycoproteins from HCV strains VD, VH, VK, VN. The data set is described as follows: Entry of patient-derived HCVpp in Huh7.5 cells. Type of data set: cell-based. As to conditions: 10 μM, 1 h prior to infection, FIG. 10B.
The conditions of data set [6]: achievable plasma concentrations; Hidalgo and Bloedow, 2003; cited from earlier work.

“Also recorded” adds a separate entry of the source. Read-outs that look alike come from different tables or passages of the source.

Broadly, the IC50 is the midpoint of a concentration-inhibition curve.

For `CS(=O)(=O)CCNCc1ccc(-c2ccc3ncnc(Nc4ccc(OCc5cccc(F)c5)c(Cl)c4)c3c2)o1` [Lapatinib], in the data set with HCVpp H77C, genotype 1a, the HCVpp entry result was “markedly inhibit”. For the same molecule, the HCVcc infection entry in the data set on HCVcc JFH1 is listed as “markedly inhibit”.

Take `Cc1nc(Nc2ncc(C(=O)Nc3c(C)cccc3Cl)s2)cc(N2CCN(CCO)CC2)n1` [Dasatinib]: the HCV replication entry in data set [1] is “did not inhibit”. For the same molecule, the 50% inhibitory concentration (IC50) in [2] was 2000 nM. Also, the “HCVpp entry in primary human hepatocytes” value in the data set with HCVpp JFH1; genotype 2a is recorded as “markedly inhibited”. In addition, the “Entry of patient-derived HCVpp in primary human hepatocytes” value in data set [3] is on record as “markedly inhibited”.

As to `COc1cc2ncnc(Nc3ccc(F)c(Cl)c3)c2cc1OCCCN1CCOCC1` [Gefitinib], the HCVpp entry result in the data set with HCVpp H77C, genotype 1a is “markedly inhibit”. In the data set on HCVcc JFH1, the HCVcc infection entry is “markedly inhibit”.

Consider `CN1CC[C@H](c2c(O)cc(O)c3c(=O)cc(-c4ccccc4Cl)oc23)[C@H](O)C1` [Flavopiridol], for which the Cytotoxic effects result in data set [4] is recorded as “absence of any detectable cytotoxic effects”. Besides, in the data set with HCVpp, the “HCVpp entry in primary human hepatocytes” value is recorded as “markedly inhibited”.

Consider `c1cc(-c2cnn3cc(-c4ccc(OCCN5CCCCC5)cc4)cnc23)ccn1` [Dorsomorphin], for which the “Cell viability (MTT assay)” value is reported as “not diminished” in the data set with Huh7.5 cells and “slightly reduced” in the data set with Huh7.5.1 cells.

On to `COC[C@H]1OC(=O)c2coc3c2[C@@]1(C)C1=C(C3=O)[C@@H]2CCC(=O)[C@@]2(C)C[C@H]1OC(C)=O` [Wortmannin], for which, in the data set with HCVpp JFH1; genotype 2a, the “HCVpp entry in primary human hepatocytes” value is “did not have any effect”. The “Entry of patient-derived HCVpp in Huh7.5 cells” value (from here on “Entry … in Huh7.5 cells”) in data set [5] was “did not inhibit”.

Regarding `N#Cc1cnc2cnc(NCc3cccnc3)cc2c1Nc1ccc(F)c(Cl)c1` [TpI2 kinase inhibitor], in data set [5], the “Entry … in Huh7.5 cells” value was “did not result in a reproducible inhibition”.

Consider `C#Cc1cccc(Nc2ncnc3cc(OCCOC)c(OCCOC)cc23)c1` [Erlotinib], for which the HCVpp entry entry with HCVpp H77C, genotype 1a is on record as “markedly inhibit”. Further, the HCVcc infection result in the data set with HCVcc JFH1 is listed as “markedly inhibit”; in data set [2] (HCVcc Luc-Jc1, inhibitor added 1 h prior to infection, dose-dependent, FIG. 9A) it was “dose-dependently inhibited; also recorded: markedly inhibited”. Further, the HCV replication result in [1] is reported as “without markedly modulating replication; also recorded: did not inhibit”. Also, the IC50 in data set [2] (Hepatocyte) was roughly 500 nM. Further, the “Inhibitory effect on HCVcc infection by detection of viral RNA using RT-PCR” value in data set [2] (data not shown) is “confirmed”. In addition, the “HCVpp entry in primary human hepatocytes” value in the data set with HCVpp JFH1; genotype 2a is on record as “dose-dependently inhibited”. Besides, in data set [5], the “Entry … in Huh7.5 cells” value is on record as “markedly inhibited; also recorded: more potent than Dasatinib”. In data set [3], the “Entry of patient-derived HCVpp in primary human hepatocytes” value is “markedly inhibited”. In addition, the mean plasma concentrations in data set [6] is roughly 4 µM.
